Test results reported in ChEMBL document CHEMBL3045611, “Identification of the G143A mutation associated with QoI resistance in Cercospora beticola field isolates from Michigan, United States” (Pest Manag Sci, 2013).
Converted amounts (≈) assume the structure as drawn.

Columns and labels:
Assay type in all cases: functional, organism-based
[1] = system: Cercospora beticola; test: Antifungal activity against Cercospora beticola isolate 11-1040-1 expressing cytb with alanine at codon 143 assessed as reduction in spore germination
[2] = system: Cercospora beticola; test: Antifungal activity against Cercospora beticola isolate 11-1016-1 expressing cytb with alanine at codon 143 assessed as reduction in spore germination
[3] = system: Cercospora beticola; test: Antifungal activity against Cercospora beticola isolate 11-1027-1 expressing cytb with alanine at codon 143 assessed as reduction in spore germination
[4] = system: Cercospora beticola; test: Antifungal activity against Cercospora beticola isolate 11-1042-1 expressing cytb with alanine at codon 143 assessed as reduction in spore germination
[5] = system: Cercospora beticola; test: Antifungal activity against Cercospora beticola isolate 11-1036-2 expressing cytb with alanine at codon 143 assessed as reduction in spore germination
[6] = system: Cercospora beticola; test: Antifungal activity against Cercospora beticola isolate 11-1044-1 expressing cytb with alanine at codon 143 assessed as reduction in spore germination
[7] = system: Cercospora beticola; test: Antifungal activity against Cercospora beticola isolate 11-1014-1 expressing cytb with alanine at codon 143 assessed as reduction in spore germination
[8] = system: Cercospora beticola; test: Antifungal activity against Cercospora beticola isolate 11-1015-1 expressing cytb with alanine at codon 143 assessed as reduction in spore germination
[9] = system: Cercospora beticola; test: Antifungal activity against Cercospora beticola isolate 11-1038-2 expressing cytb with alanine at codon 143 assessed as reduction in spore germination
[10] = system: Cercospora beticola; test: Antifungal activity against Cercospora beticola isolate 11-1039-1 expressing cytb with alanine at codon 143 assessed as reduction in spore germination
[11] = system: Cercospora beticola; test: Antifungal activity against Cercospora beticola isolate 11-1037-1 expressing cytb with alanine at codon 143 assessed as reduction in spore germination
[12] = system: Cercospora beticola; test: Antifungal activity against Cercospora beticola isolate 11-1045-2 expressing cytb with alanine at codon 143 assessed as reduction in spore germination
[13] = system: Cercospora beticola; test: Antifungal activity against Cercospora beticola isolate 11-1022-2 expressing cytb with alanine at codon 143 assessed as reduction in spore germination
[14] = system: Cercospora beticola; test: Antifungal activity against Cercospora beticola isolate 11-1007-2 expressing cytb with alanine at codon 143 assessed as reduction in spore germination
[15] = system: Cercospora beticola; test: Antifungal activity against Cercospora beticola isolate 11-1008-1 expressing cytb with alanine at codon 143 assessed as reduction in spore germination
[16] = system: Cercospora beticola; test: Antifungal activity against Cercospora beticola isolate 11-1009-1 expressing cytb with alanine at codon 143 assessed as reduction in spore germination
[17] = system: Cercospora beticola; test: Antifungal activity against Cercospora beticola isolate 11-1004-1 expressing cytb with alanine at codon 143 assessed as reduction in spore germination
[18] = system: Cercospora beticola; test: Antifungal activity against Cercospora beticola isolate 11-1041-1 expressing cytb with alanine at codon 143 assessed as reduction in spore germination
[19] = system: Cercospora beticola; test: Antifungal activity against Cercospora beticola isolate 11-1026-1 expressing cytb with alanine at codon 143 assessed as reduction in spore germination
[20] = system: Cercospora beticola; test: Antifungal activity against Cercospora beticola isolate 99-233-3-M expressing cytb with glycine at codon 143 assessed as reduction in spore germination
[21] = system: Cercospora beticola; test: Antifungal activity against Cercospora beticola isolate 11-1042-2 expressing cytb with alanine at codon 143 assessed as reduction in spore germination
[22] = system: Cercospora beticola; test: Antifungal activity against Cercospora beticola isolate 11-1005-1 expressing cytb with alanine at codon 143 assessed as reduction in spore germination
[23] = system: Cercospora beticola; test: Antifungal activity against Cercospora beticola isolate 11-1043-2 expressing cytb with alanine at codon 143 assessed as reduction in spore germination
[24] = system: Cercospora beticola; test: Antifungal activity against Cercospora beticola isolate 98-19-M expressing cytb with glycine at codon 143 assessed as reduction in spore germination
[25] = system: Cercospora beticola; test: Antifungal activity against Cercospora beticola isolate 11-1007-1 expressing cytb with alanine at codon 143 assessed as reduction in spore germination
[26] = system: Cercospora beticola; test: Antifungal activity against Cercospora beticola isolate 11-1005-2 expressing cytb with alanine at codon 143 assessed as reduction in spore germination
[27] = system: Cercospora beticola; test: Antifungal activity against Cercospora beticola isolate 11-1028-1 expressing cytb with alanine at codon 143 assessed as reduction in spore germination
[28] = system: Cercospora beticola; test: Antifungal activity against Cercospora beticola isolate 11-1027-2 expressing cytb with alanine at codon 143 assessed as reduction in spore germination
[29] = system: Cercospora beticola; test: Antifungal activity against Cercospora beticola isolate 11-1046-2 expressing cytb with alanine at codon 143 assessed as reduction in spore germination
[30] = system: Cercospora beticola; test: Antifungal activity against Cercospora beticola isolate 98-13-M expressing cytb with glycine at codon 143 assessed as reduction in spore germination
[31] = system: Cercospora beticola; test: Antifungal activity against Cercospora beticola isolate 99-521-29-M expressing cytb with glycine at codon 143 assessed as reduction in spore germination
[32] = system: Cercospora beticola; test: Antifungal activity against Cercospora beticola isolate 11-1037-2 expressing cytb with alanine at codon 143 assessed as reduction in spore germination
[33] = system: Cercospora beticola; test: Antifungal activity against Cercospora beticola isolate 11-1038-1 expressing cytb with alanine at codon 143 assessed as reduction in spore germination
[34] = system: Cercospora beticola; test: Antifungal activity against Cercospora beticola isolate 11-1044-2 expressing cytb with alanine at codon 143 assessed as reduction in spore germination
[35] = system: Cercospora beticola; test: Antifungal activity against Cercospora beticola isolate 11-1003-2 expressing cytb with alanine at codon 143 assessed as reduction in spore germination
[36] = system: Cercospora beticola; test: Antifungal activity against Cercospora beticola isolate 11-1040-2 expressing cytb with alanine at codon 143 assessed as reduction in spore germination
[37] = system: Cercospora beticola; test: Antifungal activity against Cercospora beticola isolate 98-9-M expressing cytb with glycine at codon 143 assessed as reduction in spore germination
[38] = system: Cercospora beticola; test: Antifungal activity against Cercospora beticola isolate 11-1035-2 expressing cytb with alanine at codon 143 assessed as reduction in spore germination
[39] = system: Cercospora beticola; test: Antifungal activity against Cercospora beticola isolate 11-1046-1 expressing cytb with alanine at codon 143 assessed as reduction in spore germination
[40] = system: Cercospora beticola; test: Antifungal activity against Cercospora beticola isolate 11-1026-2 expressing cytb with alanine at codon 143 assessed as reduction in spore germination
[41] = system: Cercospora beticola; test: Antifungal activity against Cercospora beticola isolate 98-12-M expressing cytb with glycine at codon 143 assessed as reduction in spore germination
[42] = system: Cercospora beticola; test: Antifungal activity against Cercospora beticola isolate 11-1028-2 expressing cytb with alanine at codon 143 assessed as reduction in spore germination
[43] = system: Cercospora beticola; test: Antifungal activity against Cercospora beticola isolate 98-101-5-M expressing cytb with glycine at codon 143 assessed as reduction in spore germination
[44] = system: Cercospora beticola; test: Antifungal activity against Cercospora beticola isolate 98-10-M expressing cytb with glycine at codon 143 assessed as reduction in spore germination
[45] = system: Cercospora beticola; test: Antifungal activity against Cercospora beticola isolate 11-1006-2 expressing cytb with alanine at codon 143 assessed as reduction in spore germination
[46] = system: Cercospora beticola; test: Antifungal activity against Cercospora beticola isolate 11-1036-1 expressing cytb with alanine at codon 143 assessed as reduction in spore germination
[47] = system: Cercospora beticola; test: Antifungal activity against Cercospora beticola isolate 98-150-M expressing cytb with glycine at codon 143 assessed as reduction in spore germination
[48] = system: Cercospora beticola; test: Antifungal activity against Cercospora beticola isolate 11-1022-1 expressing cytb with alanine at codon 143 assessed as reduction in spore germination
[49] = system: Cercospora beticola; test: Antifungal activity against Cercospora beticola isolate 11-1015-2 expressing cytb with alanine at codon 143 assessed as reduction in spore germination

## COC(=O)N(OC)c1ccccc1COc1ccn(-c2ccc(Cl)cc2)n1 [PYRACLOSTROBIN]
[1]
  EC50: 12 µg/mL (≈ 31 µM)
[2]
  EC50: 51.7 µg/mL (≈ 133 µM)
[3]
  EC50: 25.9 µg/mL (≈ 66.9 µM)
[4]
  EC50: 31.4 µg/mL (≈ 80.9 µM)
[5]
  EC50: 5.55 µg/mL (≈ 14.3 µM)
[6]
  EC50: 14.3 µg/mL (≈ 36.8 µM)
[7]
  EC50: 5.03 µg/mL (≈ 13 µM)
[8]
  EC50: 72.2 µg/mL (≈ 186 µM)
[9]
  EC50: 3.24 µg/mL (≈ 8.35 µM)
[10]
  EC50: 20.4 µg/mL (≈ 52.7 µM)
[11]
  EC50: 40.9 µg/mL (≈ 105 µM)
[12]
  EC50: 16.2 µg/mL (≈ 41.9 µM)
[13]
  EC50: 6.37 µg/mL (≈ 16.4 µM)
[14]
  EC50: 16.1 µg/mL (≈ 41.5 µM)
[15]
  EC50: 4.82 µg/mL (≈ 12.4 µM)
[16]
  EC50: 47.4 µg/mL (≈ 122 µM)
[17]
  EC50: 5.34 µg/mL (≈ 13.8 µM)
[18]
  EC50: 4.55 µg/mL (≈ 11.7 µM)
[19]
  EC50: 7.15 µg/mL (≈ 18.4 µM)
[20]
  EC50: 0.001 µg/mL (≈ 0.00258 µM)
[21]
  EC50: 32.6 µg/mL (≈ 84.1 µM)
[22]
  EC50: 46 µg/mL (≈ 119 µM)
[23]
  EC50: 16.9 µg/mL (≈ 43.6 µM)
[24]
  EC50: 0.003 µg/mL (≈ 0.00774 µM)
[25]
  EC50: 4.78 µg/mL (≈ 12.3 µM)
[26]
  EC50: 7.86 µg/mL (≈ 20.3 µM)
[27]
  EC50: 8.79 µg/mL (≈ 22.7 µM)
[28]
  EC50: 4.12 µg/mL (≈ 10.6 µM)
[29]
  EC50: 26.2 µg/mL (≈ 67.6 µM)
[30]
  EC50: 0.006 µg/mL (≈ 0.0155 µM)
[31]
  EC50: 0.001 µg/mL (≈ 0.00258 µM)
[32]
  EC50: 5.92 µg/mL (≈ 15.3 µM)
[33]
  EC50: 39.9 µg/mL (≈ 103 µM)
[34]
  EC50: 5.23 µg/mL (≈ 13.5 µM)
[35]
  EC50: 0.915 µg/mL (≈ 2.36 µM)
[36]
  EC50: 22.3 µg/mL (≈ 57.6 µM)
[37]
  EC50: 0.001 µg/mL (≈ 0.00258 µM)
[38]
  EC50: 31 µg/mL (≈ 80 µM)
[39]
  EC50: 41.7 µg/mL (≈ 108 µM)
[40]
  EC50: 7.56 µg/mL (≈ 19.5 µM)
[41]
  EC50: 0.001 µg/mL (≈ 0.00258 µM)
[42]
  EC50: 4.53 µg/mL (≈ 11.7 µM)
[43]
  EC50: 0.001 µg/mL (≈ 0.00258 µM)
[44]
  EC50: 0.001 µg/mL (≈ 0.00258 µM)
[45]
  EC50: 9.54 µg/mL (≈ 24.6 µM)
[46]
  EC50: 29.7 µg/mL (≈ 76.5 µM)
[47]
  EC50: 0.001 µg/mL (≈ 0.00258 µM)
[48]
  EC50: 29.7 µg/mL (≈ 76.5 µM)
[49]
  EC50: 2.1 µg/mL (≈ 5.41 µM)
